The source of these data is ChEMBL document CHEMBL1201862, “PubChem BioAssay data set” (2004).

Data set [1] in a line: inhibitors of Bluetongue virus cytopathic effect, confirmation, arbovirus, BSR cells (AID 1250).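 Note: protection from viral cytopathic effect measured as cell viability by ATP luminescence.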 It counts as functional.
Data set [2] is described as follows: Luminescence Cell-Based Dose Confirmation HTS to Identify Inhibitors of Platelet Dense Granule Release. [Related pubchem assays: 1663 (Primary HTS), 1678 (Summary of Project)]. It counts as functional.
The target in data set [3] is T1, Luciferin 4-monooxygenase (Photinus pyralis, UniProt P08659). The experiment in a line: firefly luciferase enzyme inhibitors, dose response, biochemical, luminescence (AID 1891).
The subject of the next data set is H9c2. Kind of data set: cells. It counts as functional, cell-based. Conditions: Rattus norvegicus, H9c2, Myocardium.
Data set [4] addresses T2, Bcl-2-related protein A1 (Mus musculus, UniProt Q07440).
T2 sequence (Q07440 whole entry): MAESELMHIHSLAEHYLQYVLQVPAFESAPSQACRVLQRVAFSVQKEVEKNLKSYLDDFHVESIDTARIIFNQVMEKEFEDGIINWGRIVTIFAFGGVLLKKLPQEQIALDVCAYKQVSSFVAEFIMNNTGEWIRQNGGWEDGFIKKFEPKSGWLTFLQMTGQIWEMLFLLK
The experiment in a line: Bfl-1 binding inhibitors, SAR follow-up, biochemical, fluorescence polarization (AID 1070). In general terms: In fluorescence polarisation assays a small probe gives low polarisation when free and higher when bound to something large.

Data set [5] deals with Glyceraldehyde-3-phosphate dehydrogenase (Homo sapiens, UniProt P04406).
In data set [6] the target is T2, Bcl-2-related protein A1. Kind of data set: Bfl-1 inhibitors blocking BH3 peptide binding, confirmation, biochemical, TR-FRET, mouse Bfl-1 (AID 621).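 Note: TR-FRET binding of GST-Bfl-1 to FITC-labelled Bid peptide via terbium antibody.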 Background: In TR-FRET formats the signal depends on donor and acceptor labels being close together.
For data set [7], the target named is T3, Sentrin-specific protease 8 (Homo sapiens, UniProt Q96LD8).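 Note: luminescence read-out of SENP8 inhibition, dose-response confirmation following an ultra-high-throughput screen.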
T3 sequence (Q96LD8 whole entry): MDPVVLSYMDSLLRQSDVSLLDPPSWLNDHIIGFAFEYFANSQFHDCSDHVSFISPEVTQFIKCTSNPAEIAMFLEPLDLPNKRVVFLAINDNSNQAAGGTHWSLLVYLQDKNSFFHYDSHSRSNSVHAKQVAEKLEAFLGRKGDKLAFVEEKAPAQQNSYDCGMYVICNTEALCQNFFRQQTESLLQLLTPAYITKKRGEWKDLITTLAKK
Type of data set: functional.

For the next data set, the system named is H4. The experiment in a line: Luminescence Cell-Based Dose Response HTS to Identify Activators of 5'UTR Stem-Loop Driven Prion Protein mRNA Translation in H4 Neuroglioblastoma Cells. [Related pubchem assays: 1829 (Project Summary), 1814 (Primary HTS)]. Type of data set: functional. The settings on record: Homo sapiens.
Data set [8] can be described thus: Luminescence Cell-Based Dose Response to Identify Activators of Luciferase Translation or Activity in H4-C Neuroglioblastoma Cells. [Related pubchem assays: 1829 (Project Summary), 1814 (Primary HTS)]. It counts as functional.
Data set [9] addresses T4, Sentrin-specific protease 7 (Homo sapiens, UniProt Q9BQF6).
T4 sequence (Q9BQF6 whole entry): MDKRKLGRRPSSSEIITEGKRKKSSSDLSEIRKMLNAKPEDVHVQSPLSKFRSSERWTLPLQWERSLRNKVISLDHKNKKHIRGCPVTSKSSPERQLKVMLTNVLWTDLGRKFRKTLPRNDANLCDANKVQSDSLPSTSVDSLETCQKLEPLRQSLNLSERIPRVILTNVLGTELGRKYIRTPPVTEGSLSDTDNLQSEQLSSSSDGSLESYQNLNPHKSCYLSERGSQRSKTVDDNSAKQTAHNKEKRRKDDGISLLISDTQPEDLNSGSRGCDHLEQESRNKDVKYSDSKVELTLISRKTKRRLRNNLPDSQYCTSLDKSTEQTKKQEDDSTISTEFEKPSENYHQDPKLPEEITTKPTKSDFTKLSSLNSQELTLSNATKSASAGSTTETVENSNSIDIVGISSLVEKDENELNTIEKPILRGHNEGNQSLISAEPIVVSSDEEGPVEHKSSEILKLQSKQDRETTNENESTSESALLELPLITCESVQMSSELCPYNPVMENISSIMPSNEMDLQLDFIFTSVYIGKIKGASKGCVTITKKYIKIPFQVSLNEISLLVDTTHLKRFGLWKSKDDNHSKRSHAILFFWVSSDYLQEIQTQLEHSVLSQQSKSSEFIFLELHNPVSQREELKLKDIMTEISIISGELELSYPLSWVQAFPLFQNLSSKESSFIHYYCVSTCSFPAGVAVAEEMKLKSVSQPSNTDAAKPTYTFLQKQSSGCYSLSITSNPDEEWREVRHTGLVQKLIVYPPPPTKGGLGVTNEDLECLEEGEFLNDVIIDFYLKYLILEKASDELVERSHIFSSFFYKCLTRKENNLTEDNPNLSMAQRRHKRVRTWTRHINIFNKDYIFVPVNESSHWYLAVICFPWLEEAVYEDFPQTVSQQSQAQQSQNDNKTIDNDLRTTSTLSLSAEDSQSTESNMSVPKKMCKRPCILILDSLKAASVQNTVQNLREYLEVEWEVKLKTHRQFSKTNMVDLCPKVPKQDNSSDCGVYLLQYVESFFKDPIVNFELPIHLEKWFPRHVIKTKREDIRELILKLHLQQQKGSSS
Type of data set: functional.

Data set [10] in a line: Luminescence Cell-Based Dose Confirmation to Identify Activators of 5'UTR Stem-Loop Driven Alpha-Synuclein mRNA Translation in H4 Neuroglioblastoma Cells. [Related pubchem assays: 1829 (Project Summary), 1814 (Primary HTS)]. Type of data set: functional.
For data set [11], the target named is T5, Sentrin-specific protease 6 (Homo sapiens, UniProt Q9GZR1).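 Note: Luminescence-based dose-response confirmatory assay of SENP6 inhibition, following up an ultra-high-throughput screen.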
T5 sequence (Q9GZR1 whole entry): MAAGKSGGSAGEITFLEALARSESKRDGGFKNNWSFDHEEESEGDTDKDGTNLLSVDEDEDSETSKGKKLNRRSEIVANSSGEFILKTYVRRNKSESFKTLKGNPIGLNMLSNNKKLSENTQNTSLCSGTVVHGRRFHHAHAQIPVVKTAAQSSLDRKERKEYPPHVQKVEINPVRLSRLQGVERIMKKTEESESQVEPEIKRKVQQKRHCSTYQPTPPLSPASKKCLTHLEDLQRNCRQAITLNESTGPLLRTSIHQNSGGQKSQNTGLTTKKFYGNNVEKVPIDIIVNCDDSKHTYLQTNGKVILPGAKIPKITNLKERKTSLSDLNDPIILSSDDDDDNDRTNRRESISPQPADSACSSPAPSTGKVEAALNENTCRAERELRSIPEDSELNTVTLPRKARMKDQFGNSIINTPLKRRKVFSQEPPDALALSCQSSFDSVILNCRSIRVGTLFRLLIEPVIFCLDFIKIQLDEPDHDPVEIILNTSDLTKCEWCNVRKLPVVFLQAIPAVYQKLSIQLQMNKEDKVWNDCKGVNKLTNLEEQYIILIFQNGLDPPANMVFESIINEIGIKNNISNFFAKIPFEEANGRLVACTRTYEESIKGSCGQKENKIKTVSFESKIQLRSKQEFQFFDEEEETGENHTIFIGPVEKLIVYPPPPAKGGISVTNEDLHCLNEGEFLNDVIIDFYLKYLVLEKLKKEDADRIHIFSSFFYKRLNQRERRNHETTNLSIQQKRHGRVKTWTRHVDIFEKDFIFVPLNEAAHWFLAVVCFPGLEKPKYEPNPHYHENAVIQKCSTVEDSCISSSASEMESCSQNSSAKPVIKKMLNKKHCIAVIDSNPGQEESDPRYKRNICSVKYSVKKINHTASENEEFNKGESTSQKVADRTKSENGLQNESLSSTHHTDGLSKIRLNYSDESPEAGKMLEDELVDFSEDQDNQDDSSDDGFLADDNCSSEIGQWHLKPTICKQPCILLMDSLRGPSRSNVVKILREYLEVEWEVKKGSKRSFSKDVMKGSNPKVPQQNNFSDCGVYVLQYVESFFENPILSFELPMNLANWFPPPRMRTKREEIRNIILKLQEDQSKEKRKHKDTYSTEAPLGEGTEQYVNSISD
Type of data set: functional.

A short description of data set [12]: Luminescence Cell-Based Dose Response HTS to Identify Activators of Luciferase Translation or Activity in H4 […] Cells. [Related pubchem assays: 1829 (Project Summary), 1814 (Primary HTS)]. Type of data set: functional.
A further data set has as its target T6, Caspase-3 (Homo sapiens, UniProt P42574).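 Note: Dose-response selectivity test against caspase-3 for candidate inhibitors of sentrin-specific proteases (SENPs).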
T6 sequence (P42574 whole entry): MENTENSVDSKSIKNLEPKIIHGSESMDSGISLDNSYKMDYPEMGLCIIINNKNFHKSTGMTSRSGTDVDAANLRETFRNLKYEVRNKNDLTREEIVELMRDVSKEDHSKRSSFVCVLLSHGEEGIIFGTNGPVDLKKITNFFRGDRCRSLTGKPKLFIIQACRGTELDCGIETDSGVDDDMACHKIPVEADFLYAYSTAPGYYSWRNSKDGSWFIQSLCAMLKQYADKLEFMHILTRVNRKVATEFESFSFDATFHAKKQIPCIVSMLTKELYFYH
It counts as functional.

A short description of data set [13]: Luminescence Cell-Based Dose Response to Identify Activators of 5'UTR Stem-Loop Driven Prion Protein mRNA Translation in H4-C Neuroglioblastoma Cells. [Related pubchem assays: 1829 (Project Summary), 1814 (Primary HTS)]. It counts as functional.
In a further data set the test system is HT-1080. Kind of data set: cytotoxicity in HT1080 fibrosarcoma cells, cell-based, fluorescence readout (AID 620). It counts as functional. The settings on record: Homo sapiens.
For data set [14], the target named is T1, Luciferin 4-monooxygenase. Kind of data set: Counter Screen for Luciferase-based Assay Positives. [Related pubchem assays: 620, 618, 411 ]. On the technique in general: The purpose of a counterscreen is to sort out artefacts and off-target activity.
Data set [15] addresses Lytic switch protein BZLF1 (Epstein-Barr virus (strain B95-8) (HHV-4) (Human herpesvirus 4), UniProt P03206). Kind of data set: EBV ZTA inhibitors, dose response, counter-screen for EBNA-1 inhibitor project, biochemical, fluorescence polarization, Epstein-Barr virus, 1536-well (AID 2377).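 Note: fluorescence polarization of Cy5-labelled ZRE DNA probe bound by purified Zta.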 Also on record: species or system human gammaherpesvirus 4.
Data set [16] deals with Epstein-Barr nuclear antigen 1 (Epstein-Barr virus (strain B95-8) (HHV-4) (Human herpesvirus 4), UniProt P03211). The experiment in a line: EBNA-1 inhibitors, dose response, biochemical, fluorescence polarization, 1536-well (AID 2381).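 Note: fluorescence polarization of a Cy5 DNA probe bound by EBNA-1 protein.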 More on the design: species or system human gammaherpesvirus 4.
Data set [17] has as its target Peroxisome proliferator-activated receptor gamma/Nuclear receptor coactivator 2 (Homo sapiens, UniProt P37231). Type of data set: functional.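 Note: agonist potency for raising coactivator recruitment to the receptor.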
In another data set the target is Cytochrome P450 3A4 (Homo sapiens, UniProt P08684).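 Note: CYP3A4 tested as one member of a cytochrome P450 panel screen.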
Data set [18] concerns the target Peroxisome proliferator-activated receptor gamma/Nuclear receptor coactivator 3 (Homo sapiens, UniProt P37231). Type of data set: functional.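 Note: agonist potency for raising coactivator recruitment to the receptor.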
For data set [19], the target named is Peroxisome proliferator-activated receptor gamma/Nuclear receptor coactivator 1 (Homo sapiens, UniProt P37231). It counts as functional.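 Note: agonist potency as compounds enhance coactivator SRC-1 recruitment to PPARgamma.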
The target of another data set is Cytochrome P450 2C19 (Homo sapiens, UniProt P33261). Kind of data set: Cytochrome panel assay with activity outcomes. Panel member name: p450-cyp2c19 Compounds with AC50 equal or less than 10 uM are considered active. It counts as functional. The settings on record: read-out: AC50.

Structures are written as SMILES. Active and inactive are the calls of the source.

Peroxisome proliferator-activated receptor gamma/Nuclear receptor coactivator 1, sequence (P37231 whole entry): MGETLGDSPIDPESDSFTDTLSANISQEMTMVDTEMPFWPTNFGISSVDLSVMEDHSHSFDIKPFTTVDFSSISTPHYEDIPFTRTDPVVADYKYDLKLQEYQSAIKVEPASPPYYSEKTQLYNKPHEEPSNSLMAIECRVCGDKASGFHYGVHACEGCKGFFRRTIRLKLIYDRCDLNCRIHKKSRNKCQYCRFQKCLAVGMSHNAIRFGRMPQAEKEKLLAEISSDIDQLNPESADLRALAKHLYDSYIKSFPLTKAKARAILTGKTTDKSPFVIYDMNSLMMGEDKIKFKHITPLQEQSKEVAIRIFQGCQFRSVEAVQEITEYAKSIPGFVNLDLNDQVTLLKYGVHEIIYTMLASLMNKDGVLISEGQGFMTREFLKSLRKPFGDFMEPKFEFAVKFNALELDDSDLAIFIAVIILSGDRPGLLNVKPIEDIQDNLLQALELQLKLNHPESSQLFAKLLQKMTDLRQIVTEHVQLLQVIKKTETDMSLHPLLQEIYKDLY
Peroxisome proliferator-activated receptor gamma/Nuclear receptor coactivator 1, sequence (Q15788 whole entry, further chain): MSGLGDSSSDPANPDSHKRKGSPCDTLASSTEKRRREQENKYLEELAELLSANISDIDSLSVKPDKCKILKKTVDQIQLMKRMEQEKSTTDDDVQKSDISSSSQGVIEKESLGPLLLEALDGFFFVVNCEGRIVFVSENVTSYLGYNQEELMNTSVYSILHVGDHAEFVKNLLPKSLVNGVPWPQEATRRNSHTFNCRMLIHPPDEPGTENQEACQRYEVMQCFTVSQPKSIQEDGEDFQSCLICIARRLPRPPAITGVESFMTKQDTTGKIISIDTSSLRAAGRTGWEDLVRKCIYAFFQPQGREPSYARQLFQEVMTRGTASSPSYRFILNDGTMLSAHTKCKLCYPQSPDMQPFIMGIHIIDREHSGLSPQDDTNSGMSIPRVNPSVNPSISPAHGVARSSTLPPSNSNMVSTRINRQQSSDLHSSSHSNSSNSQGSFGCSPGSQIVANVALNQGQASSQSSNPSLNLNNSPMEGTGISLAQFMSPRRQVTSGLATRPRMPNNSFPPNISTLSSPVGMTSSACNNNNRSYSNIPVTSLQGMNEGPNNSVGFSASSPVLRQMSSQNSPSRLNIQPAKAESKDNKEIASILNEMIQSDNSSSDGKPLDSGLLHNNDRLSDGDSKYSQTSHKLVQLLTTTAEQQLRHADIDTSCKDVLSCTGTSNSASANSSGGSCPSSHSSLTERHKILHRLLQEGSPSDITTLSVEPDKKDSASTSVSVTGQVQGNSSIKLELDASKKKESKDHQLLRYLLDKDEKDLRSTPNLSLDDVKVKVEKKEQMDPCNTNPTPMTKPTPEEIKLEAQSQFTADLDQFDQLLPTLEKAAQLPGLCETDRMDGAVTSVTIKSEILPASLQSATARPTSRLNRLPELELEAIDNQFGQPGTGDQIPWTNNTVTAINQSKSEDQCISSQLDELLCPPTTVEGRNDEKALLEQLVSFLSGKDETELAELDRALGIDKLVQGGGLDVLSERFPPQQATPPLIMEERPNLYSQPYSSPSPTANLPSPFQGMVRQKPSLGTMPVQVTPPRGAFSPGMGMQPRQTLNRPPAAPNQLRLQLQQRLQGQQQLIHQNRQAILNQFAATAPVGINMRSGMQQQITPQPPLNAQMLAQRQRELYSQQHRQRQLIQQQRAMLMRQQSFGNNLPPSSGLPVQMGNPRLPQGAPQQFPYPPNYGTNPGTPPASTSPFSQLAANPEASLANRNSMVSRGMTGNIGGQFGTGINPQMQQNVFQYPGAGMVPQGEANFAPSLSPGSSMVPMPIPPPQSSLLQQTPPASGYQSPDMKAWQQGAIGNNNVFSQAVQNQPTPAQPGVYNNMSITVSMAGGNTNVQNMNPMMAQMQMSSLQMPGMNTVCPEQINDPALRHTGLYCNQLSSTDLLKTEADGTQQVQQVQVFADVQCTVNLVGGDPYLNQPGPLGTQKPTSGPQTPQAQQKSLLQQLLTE
Peroxisome proliferator-activated receptor gamma/Nuclear receptor coactivator 3, sequence (P37231 whole entry): as the sequence (P37231 whole entry) above
Peroxisome proliferator-activated receptor gamma/Nuclear receptor coactivator 3, sequence (Q9Y6Q9 whole entry, further chain): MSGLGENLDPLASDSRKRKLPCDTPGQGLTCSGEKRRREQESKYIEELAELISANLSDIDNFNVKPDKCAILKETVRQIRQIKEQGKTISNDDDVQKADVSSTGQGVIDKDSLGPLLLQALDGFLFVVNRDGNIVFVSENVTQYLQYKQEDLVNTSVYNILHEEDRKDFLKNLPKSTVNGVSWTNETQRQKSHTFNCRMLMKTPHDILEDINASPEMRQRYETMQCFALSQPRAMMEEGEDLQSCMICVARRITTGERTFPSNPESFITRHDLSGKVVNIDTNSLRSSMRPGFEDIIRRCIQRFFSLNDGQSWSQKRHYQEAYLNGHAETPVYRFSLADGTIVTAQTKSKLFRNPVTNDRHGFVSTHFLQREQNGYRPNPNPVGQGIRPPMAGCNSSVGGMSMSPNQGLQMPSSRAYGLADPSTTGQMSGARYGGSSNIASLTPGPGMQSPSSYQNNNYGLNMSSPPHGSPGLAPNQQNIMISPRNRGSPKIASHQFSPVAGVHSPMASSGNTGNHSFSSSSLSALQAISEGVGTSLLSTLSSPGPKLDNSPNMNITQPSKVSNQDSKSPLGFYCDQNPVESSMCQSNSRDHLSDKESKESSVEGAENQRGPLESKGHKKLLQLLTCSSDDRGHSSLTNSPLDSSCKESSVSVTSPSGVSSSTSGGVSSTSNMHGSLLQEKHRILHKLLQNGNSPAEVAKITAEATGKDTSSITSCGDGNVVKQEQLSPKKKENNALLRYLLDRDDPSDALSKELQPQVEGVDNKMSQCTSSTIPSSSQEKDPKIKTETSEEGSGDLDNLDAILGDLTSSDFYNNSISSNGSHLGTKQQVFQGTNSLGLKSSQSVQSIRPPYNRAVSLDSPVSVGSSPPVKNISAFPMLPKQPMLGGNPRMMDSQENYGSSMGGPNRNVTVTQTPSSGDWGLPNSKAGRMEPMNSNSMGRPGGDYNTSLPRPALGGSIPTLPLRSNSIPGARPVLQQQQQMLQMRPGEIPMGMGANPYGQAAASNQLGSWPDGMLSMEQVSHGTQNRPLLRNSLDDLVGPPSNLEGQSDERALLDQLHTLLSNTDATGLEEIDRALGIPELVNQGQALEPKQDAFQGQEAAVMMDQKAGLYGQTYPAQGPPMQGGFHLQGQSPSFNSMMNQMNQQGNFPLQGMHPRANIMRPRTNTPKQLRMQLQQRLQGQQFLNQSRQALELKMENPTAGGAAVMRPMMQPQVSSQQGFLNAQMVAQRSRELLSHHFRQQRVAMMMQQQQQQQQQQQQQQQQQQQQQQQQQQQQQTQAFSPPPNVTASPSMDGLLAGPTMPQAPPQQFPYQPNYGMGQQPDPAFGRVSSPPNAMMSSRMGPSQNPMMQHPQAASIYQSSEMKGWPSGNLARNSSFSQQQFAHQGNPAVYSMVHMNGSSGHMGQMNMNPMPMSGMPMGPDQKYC
T1 sequence (P08659 whole entry): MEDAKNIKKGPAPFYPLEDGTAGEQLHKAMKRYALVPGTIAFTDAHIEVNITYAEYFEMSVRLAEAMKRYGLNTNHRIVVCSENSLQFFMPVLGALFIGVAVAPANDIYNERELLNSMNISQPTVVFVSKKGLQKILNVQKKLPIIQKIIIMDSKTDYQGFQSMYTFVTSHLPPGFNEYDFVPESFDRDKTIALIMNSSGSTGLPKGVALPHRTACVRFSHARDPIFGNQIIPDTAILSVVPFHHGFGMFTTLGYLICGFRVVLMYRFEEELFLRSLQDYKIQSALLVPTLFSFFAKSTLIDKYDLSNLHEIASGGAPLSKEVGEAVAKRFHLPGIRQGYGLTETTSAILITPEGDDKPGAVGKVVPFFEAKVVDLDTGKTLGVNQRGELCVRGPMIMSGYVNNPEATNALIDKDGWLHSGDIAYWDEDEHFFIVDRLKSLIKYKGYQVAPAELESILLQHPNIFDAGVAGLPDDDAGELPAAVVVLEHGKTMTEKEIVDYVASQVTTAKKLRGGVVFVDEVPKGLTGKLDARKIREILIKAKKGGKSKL
Epstein-Barr nuclear antigen 1, sequence (P03211 whole entry): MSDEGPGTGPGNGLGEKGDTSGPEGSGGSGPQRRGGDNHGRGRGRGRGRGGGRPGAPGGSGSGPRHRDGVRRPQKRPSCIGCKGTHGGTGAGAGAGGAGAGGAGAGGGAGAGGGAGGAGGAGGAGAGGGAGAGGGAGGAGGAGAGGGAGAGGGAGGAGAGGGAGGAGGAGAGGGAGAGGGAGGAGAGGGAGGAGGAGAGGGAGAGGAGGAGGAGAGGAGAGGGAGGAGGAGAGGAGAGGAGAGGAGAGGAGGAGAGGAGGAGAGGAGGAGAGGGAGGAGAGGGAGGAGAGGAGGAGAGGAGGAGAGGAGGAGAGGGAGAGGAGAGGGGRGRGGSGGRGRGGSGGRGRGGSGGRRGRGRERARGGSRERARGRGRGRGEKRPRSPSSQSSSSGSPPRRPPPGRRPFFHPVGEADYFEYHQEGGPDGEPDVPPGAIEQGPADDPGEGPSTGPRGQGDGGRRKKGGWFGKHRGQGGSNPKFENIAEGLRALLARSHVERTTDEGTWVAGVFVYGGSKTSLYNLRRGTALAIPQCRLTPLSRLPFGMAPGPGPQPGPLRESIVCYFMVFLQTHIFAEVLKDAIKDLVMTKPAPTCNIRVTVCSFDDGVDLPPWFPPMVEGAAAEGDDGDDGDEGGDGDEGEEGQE

For `COc1ccc(-c2nnc(-c3cc(OC)c(OC)c(OC)c3)o2)cc1OC`, the IC50 was 27.5 µM (active) in [1] and 12.5 µM (active) in the data set on H9c2. Moreover, the EC50 in [2] and in data set [3] was > 112 µM (not active) throughout.
With `CCOc1ccccc1N1CCN(C2=C(Cl)C(=O)N(c3ccc(Cl)c(Cl)c3)C2=O)CC1`, the IC50 (on Bcl-2-related protein A1 [4]; in data set [5]; on Bcl-2-related protein A1 [6]) was > 100 µM (not active) in each case.
For the molecule `O=C(Nc1cccc(F)c1)Nc1ccc2c(c1)CCC2`, the IC50 was > 100 µM (inactive) in [7], 2.85 µM (active) in [9], > 100 µM (inactive) in data set [11] and 57.8 µM (active) on Caspase-3. For the same molecule, the EC50 is > 120 µM (not active) with H4; 0.463 µM (active) in data set [8]; 10.7 µM (active) in data set [10]; < 0.1 µM (active) in data set [12]; 0.63 µM (active) in [13].
For `c1ccc(-c2ccc(-c3ccccn3)nn2)nc1`, the EC50 in the data set with HT-1080 was > 50 µM (not active); in [14] it was > 100 µM (not active).
Turning to `COc1cc(OC)c(/C=C2\SC(=O)N(CC(=O)Nc3ccccc3F)C2=O)c(OC)c1`, the IC50 in [15] was > 111 µM (not active); in data set [16], 1.98 µM (active).
For `Cc1ccccc1OCC(=O)Nc1sc(C(=O)Nc2cccc(C)c2C)c(C)c1C#N`, the EC50 is 36.5 µM (not active) in [17], < 79.4 µM (not active) in [18] and 52.4 µM (not active) in data set [19]. Also, at Cytochrome P450 3A4, the AC50 result is “inconclusive”.
For the molecule `COc1ccc2nc(O)c(-c3nnn(-c4ccc(C)cc4)n3)cc2c1`, the IC50 on Bcl-2-related protein A1 [4] and at Bcl-2-related protein A1 [6] was > 100 µM (not active) throughout.
As for `O=C(CC1CCCC1)Nc1ccc2c(c1)CCC2`, the EC50 in data set [17], in data set [18] and in [19] was > 79.4 µM (not active) each time. Moreover, at Cytochrome P450 2C19, the AC50 is 7.08 µM (inconclusive).
Consider `COc1ccc(N/C=C2/C(=O)N(c3ccc(OC)cc3)C(=O)c3ccccc32)cc1`, for which the values for the IC50 in data set [15] and in data set [16] were > 111 µM (not active) and 8.99 µM (active), respectively.

As a reminder, the IC50 is the concentration that inhibits the measured activity by half. A word on the EC50: it is the concentration giving half of the maximal effect. As usually defined, the AC50 is the concentration at which the activity in the assay is half-maximal.
